A word on the IC50: it is the midpoint of a concentration-inhibition curve.

Some results are limits rather than exact numbers.

This passage reports IC50 results from patent publication US8389527B2, “Substituted imidazopyridazines useful as kinase inhibitors” (Bristol-Myers Squibb Company, priority 2008, dated 2013).

The target in one experiment is T1, recombinant CK2A1 (Homo sapiens, UniProt P68400).
T1 construct: purchased Invitrogen
Briefly: CK2 kinase assay (CK2A1), [γ-33P]ATP filter-binding. It is filed as biochemical. The note with it: recombinant CK2A1 10 nM, ATP 25 μM, 10 μM peptide substrate, 30° C. 1 h. Here is the method: (§1) The effectiveness of compounds of the present invention as inhibitors of protein kinases can be readily tested by assays known to those skilled in the art. For example, in vitro protein kinase assays may be conducted with a relevant purified protein kinase and an appropriate synthetic substrate to determine the inhibitory activities of the compounds. […] Reaction mixtures were incubated at 30° C. for 1 h, and reaction products were captured by binding to phosphocellulose (P81) filter plates. Incorporation of radioactive phosphate into the peptide substrate was determined by liquid scintillation counting. The potency of compounds in inhibiting CK2 is expressed as IC50, defined as the concentrations of compounds required to inhibit the enzymatic activity by 50%.

The target in the next experiment is T2, recombinant CK2A2 (Homo sapiens, UniProt P19784).
T2 construct: purchased Upstate Biotechnology
T2 sequence (P19784 whole entry): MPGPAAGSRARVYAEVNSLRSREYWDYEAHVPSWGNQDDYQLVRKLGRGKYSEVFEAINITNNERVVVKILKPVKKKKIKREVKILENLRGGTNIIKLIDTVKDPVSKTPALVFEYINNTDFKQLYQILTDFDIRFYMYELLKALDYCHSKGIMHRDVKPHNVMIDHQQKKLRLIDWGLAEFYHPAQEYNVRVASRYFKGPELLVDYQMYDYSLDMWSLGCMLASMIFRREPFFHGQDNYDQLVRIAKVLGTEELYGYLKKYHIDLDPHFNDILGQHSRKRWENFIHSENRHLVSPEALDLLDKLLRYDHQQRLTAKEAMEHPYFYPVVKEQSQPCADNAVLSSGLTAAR
Briefly: CK2 kinase assay (CK2A2), [γ-33P]ATP filter-binding. In kind it is biochemical. The conditions noted are these: recombinant CK2A2 5 nM, ATP 5 μM, 10 μM peptide substrate, 30° C. 1 h. Here is the method:
as §1

For another experiment, the system named is HCT116. Briefly: Cell proliferation inhibition assay (MTT, CellTiter96). The conditions noted are these: Homo sapiens, HCT-116; HCT116 cells, 72 h with compound, MTT readout. It is filed as cell-based. Here is the method: B. Cell Proliferation Inhibition Assay
Compounds were evaluated for their ability to inhibit cell proliferation, using an assay that measures mitochondrial metabolic activity, that is directly correlated with cell numbers. Cells were plated at 2000 cells/well in 96-well plates and were cultured for 24 h in RPMI-1640 supplemented with 2% fetal bovine serum, before test compounds were added. Compounds were diluted in culture medium such that the final concentration of dimethyl sulfoxide never exceeded 1%. Following the addition of compounds, the cells were cultured for an additional 72 h before cell viability was determined by measuring the conversion of 3-(4,5-dimethylthiazol-2-yl)-2,5-diphenyltetrazolium bromide (MTT) dye using the CellTiter96 kit (Promega).

T1 sequence (P68400 whole entry): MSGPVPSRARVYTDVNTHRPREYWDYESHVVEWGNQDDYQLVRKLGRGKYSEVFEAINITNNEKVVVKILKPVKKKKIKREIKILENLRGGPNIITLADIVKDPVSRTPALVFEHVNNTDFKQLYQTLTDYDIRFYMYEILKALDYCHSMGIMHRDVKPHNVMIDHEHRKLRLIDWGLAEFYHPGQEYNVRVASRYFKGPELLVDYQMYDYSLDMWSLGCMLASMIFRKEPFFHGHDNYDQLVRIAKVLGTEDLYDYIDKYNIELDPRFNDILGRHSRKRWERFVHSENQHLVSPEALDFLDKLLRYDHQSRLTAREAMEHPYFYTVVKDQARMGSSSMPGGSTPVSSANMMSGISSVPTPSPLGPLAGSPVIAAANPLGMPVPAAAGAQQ

As for `CNC(C)(C)C(=O)N[C@H]1CC[C@H](Nc2cc(NC3CC3)c3ncc(C(=O)Nc4ccnc(Cl)c4)n3n2)CC1` [Example 159, N-(2-chloro-4-pyridinyl)-8-(cyclopropylamino)-6-((trans-4-((N,2-dimethylalanyl)amino)cyclohexyl)amino) imidazo[1,2-b]pyridazine-3-carboxamide], the IC50 at recombinant CK2A1 came out at 0.0341 µM; at recombinant CK2A2, 0.0021 µM; in the experiment on HCT116 it was 0.28 µM.
In the same order, the values of `NCC(=O)N[C@H]1CC[C@H](Nc2cc(NC3CC3)c3ncc(C(=O)Nc4ccnc(Cl)c4)n3n2)CC1` [Example 163, N-(2-chloro-4-pyridinyl)-8-(cyclopropylamino)-6-((trans-4-(glycylamino)cyclohexyl)amino)imidazo [1,2-b]pyridazine-3-carboxamide] are 0.0296 µM, 0.0004 µM and 0.56 µM.
Taken in the same sequence, the figures for `CC(C)CC(=O)N[C@H]1CC[C@H](Nc2cc(NC3CC3)c3ncc(C(=O)Nc4ccnc(Cl)c4)n3n2)CC1` [Example 164, N-(2-chloro-4-pyridinyl)-8-(cyclopropylamino)-6-((trans-4-((3-methylbutanoyl)amino)cyclohexyl)amino) imidazo[1,2-b]pyridazine-3-carboxamide] were 0.0228 µM, 0.0021 µM and greater than 2.5 µM.
Taken in the same sequence, the figures for `COCC(=O)N[C@H]1CC[C@H](Nc2cc(NC3CC3)c3ncc(C(=O)Nc4ccnc(Cl)c4)n3n2)CC1` [Example 167, N-(2-chloro-4-pyridinyl)-8-(cyclopropylamino)-6-((trans-4-((methoxyacetyl)amino)cyclohexyl)amino) imidazo[1,2-b]pyridazine-3-carboxamide] were 0.0265 µM, 0.0004 µM and greater than 2.5 µM.
With `N[C@@H](C(=O)N[C@H]1CC[C@H](Nc2cc(NC3CC3)c3ncc(C(=O)Nc4ccnc(Cl)c4)n3n2)CC1)c1ccccc1` [Example 172, 6-((trans-4-(((2R)-2-amino-2-phenylacetyl)amino)cyclohexyl)amino)-N-(2-chloro-4-pyridinyl)-8-(cyclopropylamino)imidazo [1,2-b]pyridazine-3-carboxamide], the results for the IC50 at recombinant CK2A1, on recombinant CK2A2 and with HCT116 were 0.0373 µM, 0.0009 µM and 0.36 µM, respectively.
In the case of `C[C@@H](O)CC(=O)N[C@H]1CC[C@H](Nc2cc(NC3CC3)c3ncc(C(=O)Nc4ccnc(Cl)c4)n3n2)CC1` [Example 195, N-(2-chloro-4-pyridinyl)-8-(cyclopropylamino)-6-((trans-4-(((3R)-3-hydroxybutanoyl)amino)cyclohexyl)amino) imidazo[1,2-b]pyridazine-3-carboxamide], the IC50 on recombinant CK2A1 came to 0.0174 µM; on recombinant CK2A2, 0.0017 µM; in the experiment on HCT116 it was 0.22 µM.
In the same order, the values of `N[C@@H](CO)C(=O)N[C@H]1CC[C@H](Nc2cc(NC3CC3)c3ncc(C(=O)Nc4ccnc(Cl)c4)n3n2)CC1` [Example 197, N-(2-chloro-4-pyridinyl)-8-(cyclopropylamino)-6-((trans-4-(L-serylamino)cyclohexyl)amino)imidazo [1,2-b]pyridazine-3-carboxamide] are 0.0135 µM, 0.0008 µM and 0.23 µM.
As for `O=C(Nc1ccnc(Cl)c1)c1cnc2c(NC3CC3)cc(N[C@H]3CC[C@H](NC(=O)C4COCCN4)CC3)nn12` (stereo partly drawn) [Example 198, N-(2-chloro-4-pyridinyl)-8-(cyclopropylamino)-6-((trans-4-((3-morpholinylcarbonyl)amino)cyclohexyl)amino)imidazo [1,2-b]pyridazine-3-carboxamide], the IC50 on recombinant CK2A1 turned out to be 0.0036 µM; at recombinant CK2A2, 0.0015 µM; with HCT116, 0.09 µM.
Taken in the same sequence, the figures for `N[C@H](Cc1cccnc1)C(=O)N[C@H]1CC[C@H](Nc2cc(NC3CC3)c3ncc(C(=O)Nc4ccnc(Cl)c4)n3n2)CC1` [Example 202, N-(2-chloro-4-pyridinyl)-8-(cyclopropylamino)-6-((trans-4-((3-(3-pyridinyl)-D-alanyl)amino)cyclohexyl)amino)imidazo [1,2-b]pyridazine-3-carboxamide] were 0.0095 µM, 0.0017 µM and 0.43 µM.
Regarding `CN(C)[C@H]1CCN(C(=O)N[C@H]2CC[C@H](Nc3cc(NC4CC4)c4ncc(C(=O)Nc5ccnc(Cl)c5)n4n3)CC2)C1` [Example 272, N-(2-chloro-4-pyridinyl)-8-(cyclopropylamino)-6-((trans-4-((((3S)-3-(dimethylamino)-1-pyrrolidinyl)carbonyl)amino)cyclohexyl)amino) imidazo[1,2-b]pyridazine-3-carboxamide], the half-maximal inhibitory concentration (IC50) turned out to be 0.0019 µM on recombinant CK2A1, 0.0008 µM on recombinant CK2A2 and 0.4 µM in the experiment with HCT116.
Taken in the same sequence, the figures for `COCCNC(=O)N[C@H]1CC[C@H](Nc2cc(NC3CC3)c3ncc(C(=O)Nc4ccnc(Cl)c4)n3n2)CC1` [Example 276, N-(2-chloro-4-pyridinyl)-8-(cyclopropylamino)-6-((trans-4-(((2-methoxyethyl)carbamoyl)amino)cyclohexyl)amino)imidazo [1,2-b]pyridazine-3-carboxamide] were 0.0155 µM, 0.0011 µM and 0.16 µM.
With `CCN(C)C(=O)N[C@H]1CC[C@H](Nc2cc(NC3CC3)c3ncc(C(=O)Nc4ccnc(Cl)c4)n3n2)CC1` [Example 278, N-(2-chloro-4-pyridinyl)-8-(cyclopropylamino)-6-((trans-4-((ethyl(methyl)carbamoyl)amino)cyclohexyl)amino)imidazo[1,2-b]pyridazine-3-carboxamide], the IC50 came out at 0.0626 µM on recombinant CK2A1, 0.0015 µM at recombinant CK2A2 and 0.5 µM in the experiment on HCT116.
In the same order, the values of `O=C(Nc1ccncc1F)c1cnc2c(NC3CC3)cc(NC3CCCC3)nn12` [Example 333, 6-(cyclopentylamino)-8-(cyclopropylamino)-N-(3-fluoro-4-pyridinyl)imidazo[1,2-b] pyridazine-3-carboxamide] are 0.026 µM, 0.005 µM and 0.22 µM.
Taken in the same sequence, the figures for `N[C@H]1CC[C@H](Nc2cc(Nc3ncccc3O)c3ncc(C(=O)Nc4ccncc4)n3n2)CC1` [Example 378, 6-((trans-4-aminocyclohexyl)amino)-8-((3-hydroxy-2-pyridinyl)amino)-N-4-pyridinyl-imidazo[1,2-b]pyridazine-3-carboxamide] were 0.205 µM, 0.29 µM and greater than 1 µM.
Consider `N[C@H]1CC[C@H](Nc2cc(NC3CC3)c3ncc(C(=O)Nc4ccncc4)n3n2)CC1` [Example 390, 6-((trans-4-aminocyclohexyl)amino)-8-(cyclopropylamino)-N-4-pyridinylimidazo [1,2-b]pyridazine-3-carboxamide], for which the IC50 was determined as 0.015 µM on recombinant CK2A1, 0.006 µM on recombinant CK2A2 and 0.3 µM with HCT116.
In the same order, the values of `N[C@H]1CC[C@H](Nc2cc(Nc3ccc(CN4CCOCC4)cc3)c3ncc(C(=O)Nc4ccncc4)n3n2)CC1` [Example 414, 6-((trans-4-aminocyclohexyl)amino)-8-((4-(4-morpholinylmethyl)phenyl)amino)-N-4-pyridinylimidazo[1,2-b]pyridazine-3-carboxamide] are 0.115 µM, 0.047 µM and 0.54 µM.
In the same order, the values of `N[C@H]1CC[C@H](Nc2cc(NC3CC3)c3ncc(C(=O)Nc4ccncc4F)n3n2)CC1` [Example 468, 6-((trans-4-aminocyclohexyl)amino)-8-(cyclopropylamino)-N-(3-fluoro-4-pyridinyl)imidazo [1,2-b]pyridazine-3-carboxamide] are 0.007 µM, 0.003 µM and 0.09 µM.
As for `N[C@H]1CC[C@H](Nc2cc(NC3CCC3)c3ncc(C(=O)Nc4ccncc4F)n3n2)CC1` [Example 469, 6-((trans-4-aminocyclohexyl)amino)-8-(cyclobutylamino)-N-(3-fluoro-4-pyridinyl)imidazo [1,2-b]pyridazine-3-carboxamide], the IC50 on recombinant CK2A1 was determined as 0.019 µM; at recombinant CK2A2 it was 0.005 µM; with HCT116, 0.05 µM.
Taken in the same sequence, the figures for `N[C@H]1CC[C@H](Nc2cc(N[C@H]3C[C@@H](CO)C3)c3ncc(C(=O)Nc4ccncc4F)n3n2)CC1` [Example 476, 6-((trans-4-aminocyclohexyl)amino)-N-(3-fluoro-4-pyridinyl)-8-((cis-3-(hydroxymethyl)cyclobutyl)amino) imidazo[l,2-b]pyridazine-3-carboxamide] were 0.043 µM, 0.046 µM and 2.31 µM.
With `N[C@H]1CC[C@H](Nc2cc(Nc3cccc(N4CCNCC4)n3)c3ncc(C(=O)Nc4ccncc4F)n3n2)CC1` [Example 481, 6-((trans-4-aminocyclohexyl)amino)-N-(3-fluoro-4-pyridinyl)-8-((6-(1-piperazinyl)-2-pyridinyl)amino)imidazo [1,2-b]pyridazine-3-carboxamide], the IC50 on recombinant CK2A1 is 0.121 µM; at recombinant CK2A2, 0.034 µM; in the experiment on HCT116 it was greater than 2.5 µM.
